From patent US20240307409A1, “ARGININE METHYLTRANSFERASE INHIBITOR AND USE THEREOF” (Cytosinlab Therapeutics Co., Ltd., priority 2021, published 2024) come the findings set out here.

The subject of one assay is Toledo cells. Kind of assay: Toledo cell proliferation inhibition assay. Format: cell-based. As to conditions: six-day assay, CellTiter-Glo. How it is done: • A. Purpose: to determine the effects of compounds on Toledo cells through a six-day cell proliferation assay. • B. Reagents and materials: • 1. Cell culture medium: RPMI 1640+10% FBS • 2. 384-well cell culture plate (Corning, item #3764) • 3. 0.4% Taipan Blue Staining Solution (Thermo Fisher, item #T10282) • 4. cell counting plate (Thermo Fisher, item #C10228) • 5. 50 ml reagent reservoir (Corning, item #4870) • 6. 50 ml conical sterile polypropylene centrifuge tube (Thermo Fisher, item #339653) • 7. Automatic cell counter (Thermo Fisher, item #AMQAX1000) • 8. CellTiter-Glo Luminescent Cell Viability Detection Reagent (Promega, item #G7572) • 9. SpectraMax i3x Multi-Mode Enzyme Labeling Instrument (Megaman Molecular Instruments, item #5024062) • C. Experimental method • 1. Resuspending the cells with a pipette. • 2. 0.4% Taipan blue staining solution and Toledo cells were mixed in equal proportion, and the cells were counted using an automatic cell counter. • 3. Toledo cells were diluted to a final concentration of 2000 cells per well and transferred to a 50 ml reagent reservoir. • 4. Diluted Toledo cells were added to a 384-well cell culture plate, 40 ul per well. • 5. The cells were shortly centrifuged and settled. • 6. The cells were incubated in a 37° C., 5% CO2 cell culture incubator. • 7. The substrate in the CellTiter-Glo Luminescent Cell Viability Detection Reagent was mixed with the solution. • 8. After six days, the 384-well cell culture plate was taken from the incubator and 20 ul of configured CellTiter-Glo reagent was added to each well. • 9. 384-well cell culture platewasmixed in an orbital shaker for 30 minutes. • 10. Signal of luminescence was detected with a SpectraMax i3x multi-mode enzyme labeling instrument.

The target of another assay is PRMT1 (Homo sapiens, UniProt Q99873). The assay can be described thus: PRMT1 enzyme activity test. As to conditions: 0.5 nM PRMT1, 3H-SAM, peptide. Format: biochemical. How it is done: PRMT1 enzyme activity test were performed in a buffer prepared on the same day 5 consisting of 10 mMTirs-HCl (pH=8.0), 0.01% Tween-20 and 1 mM DTT. The compounds were prepared to the highest inhibitor concentration ultimately required in the 100× reaction with 100% DMSO and then transferred to one well of a 384-well Echo plate (Echo-eligible 384-well polypropylene microplates 2.0, transparent, flat-bottomed) and sequentially diluted in the next well with a 3-fold dilution of 100% DMSO, and so on, with a total of 10 concentrations based on Precision. 100% DMSO was added to two empty wells to serve as control well without compound and control well without enzyme in the same 384-well Echo plate. 250 nL of compound was transferred from each well of the 384-well Echo plate to a 384-well assay plate (384-well polypropylene storage microplate) via the Echo 550 liquid processor. For wells with compounds and control well without compound, a mixture (15 uL) containing PRMT1 enzyme was added to the 384-well assay plate. For control wells without enzyme, the mixture containing the assay buffer (15 uL) was added instead. The compounds were allowed to incubate with PRMT1 for 15 minutes at room temperature, and then a mixture containing ^3H-SAM and peptide (10 uL) was added to start the reaction (final volume=25 uL). The final concentrations of the components were as follows: 0.5 nM for PRMT1, 0.25 uM for ^3H-SAM, 0.1 uM for the peptide, and 1% DMSO. After 120 min of incubation, the assay was terminated by the addition of non-radiolabeled SAM (5 uL) to a final concentration of 125 uM, which diluted 3H-SAM to a level at which its incorporation into the peptide substrate was no longer detected. 25 μL of the reaction solution from the 384-well assay plate was then transferred to a 384-well detection plate (Streptavidin FlashPlate HTS PLUS, high volume, 384 wells). The biotinylated peptide was allowed to bind to the surface of the antibiotic protein streptavidin for at least 60 minutes at room temperature. The Flashplate was then washed three times with 0.1% Tween-20 in a BioTek plate washer. Plates were read on a microplate counter (MicroBeta2) to measure the amount of ^3H-labeled peptide bound to the surface of the detection plate, measured in counts per minute (cpm).
The raw data were copied from the Reader and the inhibition values were calculated in Excel by Equation (1), Equation (1): Inh %=(CPMmax−CPMcmpd)/(CPMmax−CPMmin)*100, wherein the Max signal was obtained from the enzyme-substrate interaction and the Min signal was obtained from the substrate. IC50 values were obtained by fitting the data through equation (2) using XLFit add-in for Excel version […]. Equation (2): Y=Bottom+(Top-Bottom)/(1+((IC50/X)[…])), wherein, Y represents inhibition percentage and X represents compound concentration.

Bounds are passed on as bounds.

PRMT1, sequence (Q99873 whole entry): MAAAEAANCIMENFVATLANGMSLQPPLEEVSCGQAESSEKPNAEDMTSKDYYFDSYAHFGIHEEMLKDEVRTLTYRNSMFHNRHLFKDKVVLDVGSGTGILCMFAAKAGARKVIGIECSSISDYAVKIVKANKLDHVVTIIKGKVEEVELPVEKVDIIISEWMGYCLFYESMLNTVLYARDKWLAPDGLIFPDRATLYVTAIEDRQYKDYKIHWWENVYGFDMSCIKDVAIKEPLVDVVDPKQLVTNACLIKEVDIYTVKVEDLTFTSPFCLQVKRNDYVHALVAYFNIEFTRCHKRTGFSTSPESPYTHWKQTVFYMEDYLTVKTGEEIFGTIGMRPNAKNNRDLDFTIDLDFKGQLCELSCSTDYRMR

Consider `CNCCN(C)Cc1nc(C)ccc1C1CCc2cc(F)c(F)cc2CC1` [P036], for which the IC50 with Toledo cells (Homo sapiens, Toledo, 144 h) was under 1 µM; on PRMT1, under 0.05 µM.
For `CNCCN(C)Cc1ccc(C)nc1C1CCc2cc(F)c(F)cc2CC1` [P038] the same measures were under 1 µM and under 0.05 µM.
Take `CNCCN(C)Cc1ccccc1C1CCC2(CC1)CC(C)(C)CO2` (centres unmarked) [P040]: the IC50 is under 1 µM with Toledo cells and under 0.05 µM against PRMT1.
For `CNCCN(C)Cc1ccccc1C1=CCC2(CC1)CC(C)(C)CO2` (centres unmarked) [P042], the IC50 is under 1 µM in the assay with Toledo cells (Homo sapiens, Toledo, 144 h) and under 0.05 µM against PRMT1.
For `CNCCN(C)Cc1nc2ccccc2cc1C1CCN(c2cccc(C)c2)CC1` [P046] the same measures were 1 to 5 µM and under 0.05 µM.
For `CNCCN(C)Cc1ccc2ncccc2c1C1=CCN(c2cccc(C)c2)CC1` [P047] the same measures were 1 to 5 µM and under 0.05 µM.
For `CCOC[C@H]1CC[C@@H](c2ccccc2CN(C)CCNC)CC1` [P048] the same measures were under 1 µM and under 0.05 µM.
Turning to `CNCCN(C)Cc1ccccc1C1=CCC2(CCCCO2)CC1` (centres unmarked) [P055], the IC50 in the assay with Toledo cells (Homo sapiens, Toledo, 144 h) is 1 to 5 µM; at PRMT1, under 0.05 µM.
Consider `CNCCN(C)Cc1ccc(C)nc1C1CCN(c2cc(C)cc(Cl)c2)CC1` [P058], for which the IC50 in the assay with Toledo cells (Homo sapiens, Toledo, 144 h) is under 1 µM; at PRMT1 it was under 0.05 µM.
For `CNCCN(C)Cc1nc(C)ccc1C1CCN(CCc2ccccc2)CC1` [P059] the same measures were 1 to 5 µM and under 0.05 µM.
For `CNCCN(C)Cc1ccccc1C1=CCC(OC(C)C)CC1` (centres unmarked) [P060] the same measures were under 1 µM and under 0.05 µM.
For `CNCCN(C)Cc1ccc(C)nc1C1CCN(c2cccc(C(F)F)c2)CC1` [P061] the same measures were under 1 µM and under 0.05 µM.
As for `CNCCN(C)Cc1ccc(C)nc1C1CCN(c2cc(C)cc(C)c2)CC1` [P063], the IC50 with Toledo cells (Homo sapiens, Toledo, 144 h) is under 1 µM; against PRMT1, under 0.05 µM.
For `CNCCN(C)Cc1ccc(C)nc1C1CCN(c2ccc(F)c(Cl)c2)CC1` [P064] the same measures were under 1 µM and under 0.05 µM.
As for `CNCCN(C)Cc1ccc(C)nc1C1CCN(c2ccc(F)c(C)c2)CC1` [P065], the IC50 in the assay on Toledo cells (Homo sapiens, Toledo, 144 h) is under 1 µM; at PRMT1 it was under 0.05 µM.
For `CNCCN(C)Cc1ccc(C)nc1C1CCN(c2cc(C)cc(F)c2)CC1` [P066] the same measures were under 1 µM and under 0.05 µM.
For `CNCCN(C)Cc1ccc(C)nc1C1CCN(c2cc(C)ccc2F)CC1` [P067] the same measures were under 1 µM and under 0.05 µM.
For `CNCCN(C)Cc1ncccc1C1CCN(c2cccc(C(F)(F)F)c2)CC1` [P068] the same measures were 1 to 5 µM and under 0.05 µM.
Consider `CNCCN(C)Cc1ccc(C(C)N)cc1C1CCc2cc(F)c(F)cc2CC1` (centres unmarked) [P070], for which the IC50 with Toledo cells (Homo sapiens, Toledo, 144 h) was under 1 µM; against PRMT1, under 0.05 µM.
`CNCCN(C)Cc1ncccc1C1CCN(c2cccc(CN3CCCC3)c2)CC1` [P071]: the IC50 in the assay with Toledo cells (Homo sapiens, Toledo, 144 h) was 1 to 5 µM; at PRMT1, under 0.05 µM.
Regarding `CNCCN(C)Cc1ccc(Cl)nc1C1CCN(c2cccc(C)c2)CC1` [P072], the IC50 with Toledo cells (Homo sapiens, Toledo, 144 h) is under 1 µM; at PRMT1 it was under 0.05 µM.
For `CNCCN(C)Cc1ccc(C)nc1C1CCN(c2cccc(Cl)c2)CC1` [P073] the same measures were under 1 µM and under 0.05 µM.
For `CNCCN(C)Cc1ccc(F)cc1C1CCN(c2cccc(C(C)(C)O)c2)CC1` [P076], the IC50 in the assay on Toledo cells (Homo sapiens, Toledo, 144 h) was 1 to 5 µM; on PRMT1, under 0.05 µM.
With `CNCCN(C)Cc1ncccc1C1CCN(Cc2cccc(C)c2)CC1` [P077], the IC50 in the assay with Toledo cells (Homo sapiens, Toledo, 144 h) was 1 to 5 µM; at PRMT1, under 0.05 µM.
For `CNCCN(C)Cc1ncccc1C1CCN(c2cc(C)cc(CN(C)C)c2)CC1` [P082] the same measures were 1 to 5 µM and under 0.05 µM.
For `CNCCN(C)Cc1ccc(C)nc1C1CCN(c2ccc(F)cc2)CC1` [P086] the same measures were 1 to 5 µM and under 0.05 µM.
For `CNCCN(C)Cc1ccc(F)cc1C1CCN(C(=O)Cc2ccccc2)CC1` [P087] the same measures were 1 to 5 µM and under 0.05 µM.
With `CNCCN(C)Cc1ncccc1C1CCN(Cc2ccccc2)CC1` [P090], the IC50 in the assay with Toledo cells (Homo sapiens, Toledo, 144 h) was under 1 µM; at PRMT1 it was under 0.05 µM.
For `CNCCN(C)Cc1ncccc1C1CCN(c2cccc(CN(C)C)c2)CC1` [P092] the same measures were under 1 µM and under 0.05 µM.
For `CNCCN(C)Cc1nc(C)ccc1N1CCc2cc(F)c(F)cc2CC1` [P093] the same measures were under 1 µM and under 0.05 µM.
For `CNCCN(C)Cc1ncccc1C1CCN(c2ccc(C)cc2)CC1` [P096] the same measures were 1 to 5 µM and under 0.05 µM.
On to `CNCCN(C)Cc1ccncc1C1CCN(c2cccc(C)c2)CC1` [P097], for which the IC50 in the assay with Toledo cells (Homo sapiens, Toledo, 144 h) is 1 to 5 µM; against PRMT1, under 0.05 µM.
For `CNCCN(C)Cc1ccc(N(C)C)nc1C1CCN(c2cccc(C)c2)CC1` [P098] the same measures were under 1 µM and under 0.05 µM.
For `CNCCN(C)Cc1ccc(C)nc1C1CCN(c2cccc(N(C)C)c2)CC1` [P099] the same measures were 1 to 5 µM and under 0.05 µM.
For `CNCCN(C)Cc1cc(C(=O)N(C)C)ccc1C1CCN(c2cccc(C)c2)CC1` [P100] the same measures were at least 5 µM and at least 0.5 µM.
In the case of `CNCCN(C)Cc1ccc(C(=O)N(C)C)cc1C1CCN(c2cccc(C)c2)CC1` [P101], the IC50 lay within 1 to 5 µM with Toledo cells (Homo sapiens, Toledo, 144 h) and 0.05 to 0.5 µM against PRMT1.
As to `CNCCN(C)Cc1ncccc1C1CCN(c2cccc(F)c2)CC1` [P102], the IC50 in the assay on Toledo cells (Homo sapiens, Toledo, 144 h) is under 1 µM; against PRMT1, under 0.05 µM.
For `CNCCN(C)Cc1ccc2nn(C)cc2c1C1CCc2cc(F)c(F)cc2CC1` [P104] the same measures were under 1 µM and under 0.05 µM.
Regarding `CNCCN(C)Cc1ccc(C(C)N)cc1C1CCN(c2cccc(C)c2)CC1` (centres unmarked) [P105], the IC50 was under 1 µM with Toledo cells (Homo sapiens, Toledo, 144 h) and under 0.05 µM on PRMT1.
With `CNCCN(C)Cc1ncccc1C1CCN(c2ccccc2)CC1` [P108], the IC50 in the assay with Toledo cells (Homo sapiens, Toledo, 144 h) is under 1 µM; at PRMT1, under 0.05 µM.
As for `CNCCN(C)Cc1nc(C)ccc1N1CCc2ccccc2CC1` [P109], the IC50 in the assay with Toledo cells (Homo sapiens, Toledo, 144 h) is under 1 µM; on PRMT1, under 0.05 µM.
For `CNCCN(C)Cc1ccc(C)nc1N1CCc2ccccc2CC1` [P110, N1-((2-(4,5-dihydro-1H-benzo[d]azepin-3(2H)-yl)-6-methylpyridin-3-yl)methyl)-N1,N2-dimethylethane-1,2-diamine] the same measures were under 1 µM and under 0.05 µM.
In the case of `CCOCC1(COCC)CC=C(c2c(C)cccc2CN(C)CCNC)CC1` [P111], the 50% inhibitory concentration (IC50) in the assay with Toledo cells (Homo sapiens, Toledo, 144 h) was under 1 µM; on PRMT1, under 0.05 µM.
Regarding `CNCCN(C)Cc1ncccc1C1CCN(CC(C)C)CC1` [P113], the IC50 with Toledo cells (Homo sapiens, Toledo, 144 h) was under 1 µM; at PRMT1, under 0.05 µM.
For `CNCCN(C)Cc1ccc(C)nc1N1CCN(c2cccc(C)c2)CC1` [P116] the same measures were 1 to 5 µM and under 0.05 µM.
For `CCOCC1(COCC)CC=C(c2ccccc2CN(C)CCNC)CC1` [P117] the same measures were under 1 µM and under 0.05 µM.

One may read the IC50 as the concentration that inhibits the measured activity by half. The low end stands for greater potency in that assay, the high end for weaker potency in that assay.
